Reference: US11840686B2, “Modulation of prekallikrein (PKK) expression” (Ionis Pharmaceuticals, Inc., priority 2013, dated 2023)
Strand notation (5' to 3'): a small letter for the sugar, then the base; units joined by * are phosphorothioate-linked, units joined directly phosphodiester-linked; [ ] holds rarer units or linkages, { } end groups; capitals alone tell only the bases. e = 2'-O-(2-methoxyethyl) (MOE); k = constrained ethyl (cEt); [5mC] = 5-methylcytosine; d = 2'-deoxy (DNA)

These substances were tested on human PKK mRNA (assay: Antisense inhibition of human PKK mRNA in HepaRG cells, 1,000 nM, MOE/deoxy/cEt oligonucleotides (Example 3)). Details: HepaRG cells, 1,000 nM antisense oligonucleotide, Table 29.
Assay type: cell-based
Outline: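 Readout is percent PKK mRNA reduction against untreated controls, by real-time PCR (RTS3454) adjusted for total RNA via RIBOGREEN. Oligonucleotides, phosphorothioate gapmers of 16 nucleosides with cEt, MOE and deoxy sugars, were delivered at 1,000 nM by electroporation to 20,000 HepaRG cells/well for roughly 24 h.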

Row | Substance | % inhibition [%]
1 | 548538 (antisense eT*eA*kG*dT*dG*dG*d[5mC]*dA*dA*dG*dA*dA*d[5mC]*k[5mC]*kA*e[5mC]) [compound 548538] | 0
2 | 548539 (antisense e[5mC]*eG*k[5mC]*dG*d[5mC]*dG*dA*dA*dT*dG*d[5mC]*d[5mC]*dT*kG*k[5mC]*e[5mC]) [compound 548539] | 41
3 | 548575 (eT*eG*kT*d[5mC]*d[5mC]*dT*dT*dT*dA*dA*dA*dG*dT*kA*kT*e[5mC]; antisense) [compound 548575] | 18

Same assay, conditions: HepaRG cells, electroporation with 1,000 nM antisense oligonucleotide, approx. 24 hours, PKK mRNA by RT-PCR (RTS3454), relative to untreated control cells; Table 25 experiment

Row | Substance | % inhibition [%]
4 | 548204 (eT*e[5mC]*kT*dG*dA*d[5mC]*dT*dA*dG*dT*dG*dA*dA*kT*kG*eG; antisense) [compound 548204] | 25

Same assay, conditions: HepaRG cells, electroporation with 1,000 nM antisense oligonucleotide, approx. 24 hours, PKK mRNA by RT-PCR (RTS3454), relative to untreated control cells; Table 26 experiment

Row | Substance | % inhibition [%]
5 | 548233 (eA*eT*kT*dG*dT*dA*dG*d[5mC]*d[5mC]*dA*dT*dA*d[5mC]*kA*kT*e[5mC]; antisense) [compound 548233] | 38
6 | 548252 (antisense eA*e[5mC]*kT*d[5mC]*dG*d[5mC]*d[5mC]*dT*dT*dT*dG*dT*dG*kA*kT*eG) [compound 548252] | 33
7 | 548293 (eG*eT*k[5mC]*dA*d[5mC]*d[5mC]*dA*dG*dA*dA*d[5mC]*d[5mC]*dA*k[5mC]*kA*eT; antisense) [compound 548293] | 44

Same assay, conditions: HepaRG cells, electroporation with 1,000 nM antisense oligonucleotide, approximately 24 hours, primer probe set RTS3454, relative to untreated control cells; experiment of Table 24

Row | Substance | % inhibition [%]
8 | 548031 (eG*eA*kT*dG*d[5mC]*dG*d[5mC]*d[5mC]*dA*dA*dA*d[5mC]*dA*kT*k[5mC]*e[5mC]; antisense) [compound 548031] | 73
9 | 548052 (e[5mC]*eA*kA*dA*dG*dG*dA*dG*d[5mC]*d[5mC]*dT*dG*dG*kA*kG*eT; antisense) [compound 548052] | 43
10 | 548042 (eT*eT*kT*dG*dT*dG*dA*dG*dA*dA*dA*dG*dG*kT*kG*eT; antisense) [compound 548042] | 63

Same assay, conditions: PKK mRNA, HepaRG cells, 1,000 nM antisense oligonucleotide; Table 31

Row | Substance | % inhibition [%]
11 | 548620 (antisense eT*eG*kG*dT*dT*dG*dG*dT*dG*dG*d[5mC]*dG*dG*kG*kA*eT) [compound 548620] | 24
12 | 548670 (antisense eG*eA*kA*dA*dA*dG*d[5mC]*d[5mC]*d[5mC]*dT*d[5mC]*d[5mC]*dG*kA*kG*e[5mC]) [compound 548670] | 15
13 | 548641 (antisense eG*e[5mC]*kA*dT*d[5mC]*dA*dT*dG*d[5mC]*dT*dT*dA*d[5mC]*kT*kG*e[5mC]) [compound 548641] | 23
14 | 548627 (antisense e[5mC]*e[5mC]*k[5mC]*dA*d[5mC]*dA*dT*dG*dT*dA*d[5mC]*d[5mC]*dA*k[5mC]*k[5mC]*eG) [compound 548627] | 22
15 | 548647 (antisense e[5mC]*eA*k[5mC]*dG*dG*d[5mC]*dA*dA*dG*dT*d[5mC]*dG*d[5mC]*kG*kG*eG) [compound 548647] | 39

Same assay, conditions: Table 19; HepaRG cells, electroporation with 1,000 nM antisense oligonucleotide, approximately 24 hours; PKK mRNA by RT-PCR (RTS3454), relative to untreated control cells

Row | Substance | % inhibition [%]
16 | 548141 (eG*e[5mC]*kA*dG*dA*dT*dG*dA*dG*dG*dA*d[5mC]*d[5mC]*k[5mC]*k[5mC]*e[5mC]; antisense) [compound 548141] | 66
17 | 548083 (eA*eG*kG*dG*dA*d[5mC]*d[5mC]*dA*d[5mC]*d[5mC]*dT*dG*dA*kA*kT*e[5mC]; antisense) [compound 548083] | 0
18 | 548122 (antisense e[5mC]*eT*k[5mC]*dT*dG*dG*dA*d[5mC]*dT*dG*d[5mC]*dT*dT*k[5mC]*kT*e[5mC]) [compound 548122] | 55
19 | 548089 (antisense eA*eA*kA*d[5mC]*dT*dA*dA*dG*dG*dG*dA*d[5mC]*d[5mC]*kA*k[5mC]*e[5mC]) [compound 548089] | 34
20 | 548146 (eG*eT*k[5mC]*d[5mC]*dT*dT*dA*dG*dG*dA*dT*dG*d[5mC]*kA*kA*eA; antisense) [compound 548146] | 68

Same assay, conditions: Table 20; HepaRG cells, electroporation with 1,000 nM antisense oligonucleotide, approximately 24 hours; PKK mRNA by RT-PCR (RTS3454), relative to untreated control cells

Row | Substance | % inhibition [%]
21 | 547911 (eT*eG*kG*d[5mC]*dA*dA*d[5mC]*d[5mC]*dA*dA*dT*dT*dT*k[5mC]*kT*eG; antisense) [compound 547911] | 0
22 | 547886 (e[5mC]*eG*kG*dT*dA*d[5mC]*dT*d[5mC]*dT*dG*d[5mC]*d[5mC]*dT*kT*kG*eT; antisense) [compound 547886] | 97
23 | 547858 (antisense e[5mC]*eT*k[5mC]*dT*d[5mC]*dA*dT*dA*dT*d[5mC]*dA*dA*d[5mC]*kT*k[5mC]*e[5mC]) [compound 547858] | 82
24 | 547847 (antisense e[5mC]*eT*k[5mC]*dG*dA*dT*dG*dG*d[5mC]*dA*dA*dG*d[5mC]*kA*k[5mC]*eT) [compound 547847] | 46
25 | 547893 (eG*e[5mC]*kA*dA*dT*dT*dG*dT*dT*d[5mC]*d[5mC]*dG*dG*kT*kA*e[5mC]; antisense) [compound 547893] | 81
26 | 547845 (antisense e[5mC]*eG*kA*dT*dG*dG*d[5mC]*dA*dA*dG*d[5mC]*dA*d[5mC]*kT*kT*eA) [compound 547845] | 0
27 | 547866 (antisense eT*eT*kA*dA*dA*dA*dT*dT*dG*dA*d[5mC]*dT*d[5mC]*k[5mC]*kT*e[5mC]) [compound 547866] | 46

Same assay, conditions: Table 21 experiment; HepaRG cells, electroporation with 1,000 nM antisense oligonucleotide, approx. 24 hours; PKK mRNA by RT-PCR (RTS3454), relative to untreated control cells

Row | Substance | % inhibition [%]
28 | 547826 (eT*eT*k[5mC]*dG*dA*dT*dG*dT*dA*d[5mC]*dT*dT*dT*kT*kG*eG; antisense) [compound 547826] | 31
29 | 547816 (eG*eA*kA*d[5mC]*dT*dT*dG*d[5mC]*dT*dG*dG*dA*dA*kG*kA*eA; antisense) [compound 547816] | 45
30 | 547801 (eT*eA*k[5mC]*dA*dT*dG*dG*dA*dA*dG*d[5mC]*dT*dA*k[5mC]*kA*eT; antisense) [compound 547801] | 11

Same assay, conditions: Table 22 experiment; HepaRG cells, electroporation with 1,000 nM antisense oligonucleotide, approx. 24 hours; PKK mRNA by RT-PCR (RTS3454), relative to untreated control cells

Row | Substance | % inhibition [%]
31 | 547911 (eT*eG*kG*d[5mC]*dA*dA*d[5mC]*d[5mC]*dA*dA*dT*dT*dT*k[5mC]*kT*eG; antisense) [compound 547911] | 15
32 | 547886 (e[5mC]*eG*kG*dT*dA*d[5mC]*dT*d[5mC]*dT*dG*d[5mC]*d[5mC]*dT*kT*kG*eT; antisense) [compound 547886] | 89
33 | 547858 (antisense e[5mC]*eT*k[5mC]*dT*d[5mC]*dA*dT*dA*dT*d[5mC]*dA*dA*d[5mC]*kT*k[5mC]*e[5mC]) [compound 547858] | 76
34 | 547847 (antisense e[5mC]*eT*k[5mC]*dG*dA*dT*dG*dG*d[5mC]*dA*dA*dG*d[5mC]*kA*k[5mC]*eT) [compound 547847] | 72
35 | 547893 (eG*e[5mC]*kA*dA*dT*dT*dG*dT*dT*d[5mC]*d[5mC]*dG*dG*kT*kA*e[5mC]; antisense) [compound 547893] | 80
36 | 547845 (antisense e[5mC]*eG*kA*dT*dG*dG*d[5mC]*dA*dA*dG*d[5mC]*dA*d[5mC]*kT*kT*eA) [compound 547845] | 64
37 | 547866 (antisense eT*eT*kA*dA*dA*dA*dT*dT*dG*dA*d[5mC]*dT*d[5mC]*k[5mC]*kT*e[5mC]) [compound 547866] | 40

Same assay, conditions: Table 27; HepaRG cells, 1,000 nM antisense oligonucleotide; human PKK mRNA

Row | Substance | % inhibition [%]
38 | 548360 (antisense e[5mC]*eA*kA*dG*dA*d[5mC]*dA*dT*d[5mC]*dA*dG*dT*dA*kG*k[5mC]*eT) [compound 548360] | 45
39 | 548365 (antisense eT*eG*kT*dA*d[5mC]*dT*d[5mC]*d[5mC]*dA*d[5mC]*d[5mC]*dT*d[5mC]*kA*k[5mC]*eG) [compound 548365] | 55
40 | 548321 (e[5mC]*eT*kG*d[5mC]*dA*dT*d[5mC]*dT*dG*dG*dA*d[5mC]*dT*kA*kT*eG; antisense) [compound 548321] | 38
41 | 548350 (antisense eG*e[5mC]*kG*d[5mC]*dT*dA*dA*d[5mC]*d[5mC]*dT*d[5mC]*dA*dT*kA*kA*eA) [compound 548350] | 29
42 | 548306 (eA*eT*kG*dT*dG*dA*d[5mC]*dA*dG*dT*d[5mC]*dA*dG*kG*kG*eA; antisense) [compound 548306] | 8
43 | 548366 (antisense eA*eG*k[5mC]*dA*dA*dG*d[5mC]*dT*dA*dA*dG*dT*dG*kA*kG*eT) [compound 548366] | 5
44 | 548310 (eG*eA*kG*dG*dA*dG*dT*dT*dG*dG*dT*dT*dT*kA*kG*eT; antisense) [compound 548310] | 0
45 | 548339 (antisense eA*e[5mC]*kA*dT*dG*dT*dG*dG*dG*dA*dT*d[5mC]*dA*kG*kA*eG) [compound 548339] | 37

Same assay, conditions: Table 28; HepaRG cells, 1,000 nM antisense oligonucleotide; human PKK mRNA

Row | Substance | % inhibition [%]
46 | 548475 (eA*eT*k[5mC]*dG*dA*dG*dT*d[5mC]*d[5mC]*dT*dG*d[5mC]*d[5mC]*kT*k[5mC]*e[5mC]; antisense) [compound 548475] | 17
47 | 548503 (antisense e[5mC]*e[5mC]*kA*dT*d[5mC]*dT*dA*d[5mC]*dT*d[5mC]*d[5mC]*d[5mC]*d[5mC]*k[5mC]*kA*eT) [compound 548503] | 9
48 | 548487 (eT*e[5mC]*k[5mC]*dA*dT*dG*dT*d[5mC]*dA*dG*dA*dG*dT*kT*kG*e[5mC]; antisense) [compound 548487] | 71
49 | 548515 (antisense eA*e[5mC]*k[5mC]*d[5mC]*dG*dT*d[5mC]*dA*dG*d[5mC]*d[5mC]*dT*d[5mC]*kA*kG*e[5mC]) [compound 548515] | 59
50 | 548460 (e[5mC]*eT*kA*dT*dA*d[5mC]*d[5mC]*dA*d[5mC]*dG*dG*dT*dA*kA*k[5mC]*eT; antisense) [compound 548460] | 0
51 | 548497 (antisense e[5mC]*e[5mC]*kT*dT*d[5mC]*dA*dT*dA*d[5mC]*d[5mC]*d[5mC]*d[5mC]*dT*k[5mC]*kA*e[5mC]) [compound 548497] | 26

Same assay, conditions: Table 30; human PKK mRNA, HepaRG cells, 1,000 nM antisense oligonucleotide

Row | Substance | % inhibition [%]
52 | 548438 (antisense e[5mC]*eT*kA*dT*dA*dT*d[5mC]*dA*d[5mC]*dT*dG*dT*dA*k[5mC]*k[5mC]*eT) [compound 548438] | 38
53 | 548455 (e[5mC]*eA*k[5mC]*d[5mC]*dG*dT*dA*d[5mC]*dT*dA*dG*dT*dT*kT*k[5mC]*e[5mC]; antisense) [compound 548455] | 64
54 | 548385 (eT*e[5mC]*k[5mC]*dT*dG*dG*dA*dG*dG*d[5mC]*dA*d[5mC]*d[5mC]*kA*kA*eT; antisense) [compound 548385] | 0
